Laboratory results published in ChEMBL document CHEMBL1133452, “Identification of novel purine and pyrimidine cyclin-dependent kinase inhibitors with distinct molecular interactions and tumor cell growth inhibition profiles” (J Med Chem, 2000).

How the values were obtained:
[1] = biological target: Cyclin-dependent kinase 2 (Homo sapiens, UniProt P24941); assay: Inhibition of Cyclin-dependent kinase 2 enzyme from starfish oocytes; set-up: species or system Marthasterias glacialis, Oocyte
NCI = assay: cells; conditions: Homo sapiens, read-out: Mean GI50
Description: Inhibition of NCI cell line proliferation

[2] = biological target: Cyclin-dependent kinase 1/cyclin B (Homo sapiens, UniProt O95067+P06493+P14635+Q8WWL7); assay: Inhibition of Cyclin-dependent kinase 1 enzyme from starfish oocytes; set-up: species or system Marthasterias glacialis, Oocyte
Cyclin-dependent kinase 1/cyclin B, sequence (P06493 whole entry): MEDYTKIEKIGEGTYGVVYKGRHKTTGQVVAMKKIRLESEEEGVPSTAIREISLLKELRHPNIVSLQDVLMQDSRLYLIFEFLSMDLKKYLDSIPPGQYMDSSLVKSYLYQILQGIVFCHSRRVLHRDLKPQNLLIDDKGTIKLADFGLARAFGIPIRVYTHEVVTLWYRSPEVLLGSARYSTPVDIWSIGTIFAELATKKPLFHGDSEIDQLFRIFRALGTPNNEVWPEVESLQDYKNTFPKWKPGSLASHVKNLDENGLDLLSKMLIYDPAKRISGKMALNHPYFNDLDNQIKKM
Cyclin-dependent kinase 1/cyclin B, sequence (P14635 whole entry): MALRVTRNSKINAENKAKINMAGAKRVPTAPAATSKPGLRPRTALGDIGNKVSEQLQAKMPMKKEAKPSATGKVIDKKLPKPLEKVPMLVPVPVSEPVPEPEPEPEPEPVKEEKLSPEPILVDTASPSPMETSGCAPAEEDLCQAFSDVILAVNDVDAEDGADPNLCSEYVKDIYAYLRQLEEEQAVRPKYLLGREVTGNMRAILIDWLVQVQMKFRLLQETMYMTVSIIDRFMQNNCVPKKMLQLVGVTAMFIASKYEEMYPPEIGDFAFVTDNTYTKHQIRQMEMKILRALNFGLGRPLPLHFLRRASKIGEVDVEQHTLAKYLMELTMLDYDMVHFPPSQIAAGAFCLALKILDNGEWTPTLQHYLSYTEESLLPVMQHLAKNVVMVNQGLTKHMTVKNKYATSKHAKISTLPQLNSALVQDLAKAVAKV
Cyclin-dependent kinase 1/cyclin B, sequence (Q8WWL7 whole entry): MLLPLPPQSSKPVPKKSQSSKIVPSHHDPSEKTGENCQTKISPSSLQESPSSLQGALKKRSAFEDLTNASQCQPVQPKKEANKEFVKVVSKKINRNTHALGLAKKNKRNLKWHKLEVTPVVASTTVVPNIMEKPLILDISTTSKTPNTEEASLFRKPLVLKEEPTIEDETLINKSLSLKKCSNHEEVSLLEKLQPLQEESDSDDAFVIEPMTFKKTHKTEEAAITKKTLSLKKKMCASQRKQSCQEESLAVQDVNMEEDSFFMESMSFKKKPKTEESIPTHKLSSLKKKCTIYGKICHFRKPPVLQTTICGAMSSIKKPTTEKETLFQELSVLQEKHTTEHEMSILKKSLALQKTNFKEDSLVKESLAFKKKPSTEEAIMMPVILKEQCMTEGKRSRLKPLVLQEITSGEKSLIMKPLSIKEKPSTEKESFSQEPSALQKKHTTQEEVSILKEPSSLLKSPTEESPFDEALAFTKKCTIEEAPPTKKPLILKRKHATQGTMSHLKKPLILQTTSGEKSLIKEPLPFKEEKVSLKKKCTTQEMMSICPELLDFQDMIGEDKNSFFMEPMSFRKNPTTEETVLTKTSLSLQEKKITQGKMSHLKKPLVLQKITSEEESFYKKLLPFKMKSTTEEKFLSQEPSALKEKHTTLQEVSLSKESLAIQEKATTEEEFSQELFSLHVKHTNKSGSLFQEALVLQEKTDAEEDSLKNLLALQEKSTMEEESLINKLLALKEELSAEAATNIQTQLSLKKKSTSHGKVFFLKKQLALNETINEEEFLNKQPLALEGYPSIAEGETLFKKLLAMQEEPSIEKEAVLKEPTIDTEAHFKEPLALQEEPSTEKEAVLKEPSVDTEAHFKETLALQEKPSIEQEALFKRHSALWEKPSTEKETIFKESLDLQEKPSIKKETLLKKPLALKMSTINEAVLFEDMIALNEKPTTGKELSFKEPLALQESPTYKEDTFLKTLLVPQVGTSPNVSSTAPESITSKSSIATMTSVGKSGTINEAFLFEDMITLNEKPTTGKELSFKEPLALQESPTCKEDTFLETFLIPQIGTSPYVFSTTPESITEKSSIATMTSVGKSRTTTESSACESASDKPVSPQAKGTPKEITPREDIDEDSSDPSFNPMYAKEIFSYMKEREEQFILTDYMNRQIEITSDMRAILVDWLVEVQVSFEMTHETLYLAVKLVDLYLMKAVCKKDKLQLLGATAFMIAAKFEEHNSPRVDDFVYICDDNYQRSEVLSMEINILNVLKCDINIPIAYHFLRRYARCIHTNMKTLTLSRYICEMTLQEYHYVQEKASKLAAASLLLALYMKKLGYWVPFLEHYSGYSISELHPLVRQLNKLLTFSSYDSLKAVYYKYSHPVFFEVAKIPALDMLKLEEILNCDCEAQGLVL
Cyclin-dependent kinase 1/cyclin B, sequence (O95067 whole entry): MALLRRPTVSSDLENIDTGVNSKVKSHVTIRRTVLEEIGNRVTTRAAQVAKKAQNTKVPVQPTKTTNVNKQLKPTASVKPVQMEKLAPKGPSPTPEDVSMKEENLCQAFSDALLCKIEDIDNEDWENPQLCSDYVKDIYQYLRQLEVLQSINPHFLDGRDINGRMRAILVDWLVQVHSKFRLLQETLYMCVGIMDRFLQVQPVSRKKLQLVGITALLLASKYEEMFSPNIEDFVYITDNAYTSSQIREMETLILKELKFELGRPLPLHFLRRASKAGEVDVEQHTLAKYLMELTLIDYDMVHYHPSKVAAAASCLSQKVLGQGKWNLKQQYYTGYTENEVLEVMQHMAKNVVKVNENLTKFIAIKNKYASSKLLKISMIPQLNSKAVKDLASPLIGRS

Row | SMILES | IC50 [1] [µM] | GI50 (NCI) [µM] | IC50 [2] [µM]
1 | Cn1cnc2c(OCC3CCCCC3)nc(N)nc21 | > 100 | > 100 | –
2 | c1nc(OCC2CCCCC2)c2nc[nH]c2n1 | 13 | 55 | –
3 | Nc1cc(OCC2CCCCC2)nc(N)n1 | > 10 | > 100 | > 10
